# Target: PI3Kδ (Homo sapiens (Human), UniProt O00329)
# Assay: PI3K enzyme assay, [γ-33P]ATP filter plate (Example A2), isoform δ
# Type: biochemical
# Conditions: as determined by Assay A2; 1000 μM ATP, 2.9 nM PI3Kδ
# Method: PI3K isoforms α, β, δ and γ are purchased from Millipore (Bedford, Mass.).
# Inhibitors are first diluted serially in DMSO and added to the plate wells before the addition of other reaction components. The final concentration of DMSO in the assay is 0.5%. The PI3K assays are carried out at room temperature in 20 mM MOPS, pH 6.7, 10 mM MgCl2, 5 mM DTT and CHAPS 0.03%. The reaction mixture is prepared containing 50 μM PIP2, kinase and varying concentration of inhibitors. Reactions are initiated by the addition of ATP containing 2.2 μCi [γ-^33P]ATP to a final concentration of 1000 μM. […] Reactions are incubated for 180 minutes and terminated by the addition of 100 μL of 1 M potassium phosphate pH 8.0, 30 mM EDTA quench buffer. A 100 μL aliquot of the reaction solution are then transferred to 96-well Millipore MultiScreen IP 0.45 μm PVDF filter plate (The filter plate is prewetted with 200 μL 100% ethanol, distilled water, and 1 M potassium phosphate pH 8.0, respectively). […] After drying by aspiration and blotting, the plate is air dried in an incubator at 37° C. overnight. Packard TopCount adapter (Millipore) is then attached to the plate followed with addition of 120 μL Microscint 20 scintillation cocktail (Perkin Elmer) in each well. After the plate sealing, the radioactivity of the product is determined by scintillation counting on Topcount (Perkin-Elmer). […]
# PI3Kδ, sequence (O00329 whole entry, canonical isoform): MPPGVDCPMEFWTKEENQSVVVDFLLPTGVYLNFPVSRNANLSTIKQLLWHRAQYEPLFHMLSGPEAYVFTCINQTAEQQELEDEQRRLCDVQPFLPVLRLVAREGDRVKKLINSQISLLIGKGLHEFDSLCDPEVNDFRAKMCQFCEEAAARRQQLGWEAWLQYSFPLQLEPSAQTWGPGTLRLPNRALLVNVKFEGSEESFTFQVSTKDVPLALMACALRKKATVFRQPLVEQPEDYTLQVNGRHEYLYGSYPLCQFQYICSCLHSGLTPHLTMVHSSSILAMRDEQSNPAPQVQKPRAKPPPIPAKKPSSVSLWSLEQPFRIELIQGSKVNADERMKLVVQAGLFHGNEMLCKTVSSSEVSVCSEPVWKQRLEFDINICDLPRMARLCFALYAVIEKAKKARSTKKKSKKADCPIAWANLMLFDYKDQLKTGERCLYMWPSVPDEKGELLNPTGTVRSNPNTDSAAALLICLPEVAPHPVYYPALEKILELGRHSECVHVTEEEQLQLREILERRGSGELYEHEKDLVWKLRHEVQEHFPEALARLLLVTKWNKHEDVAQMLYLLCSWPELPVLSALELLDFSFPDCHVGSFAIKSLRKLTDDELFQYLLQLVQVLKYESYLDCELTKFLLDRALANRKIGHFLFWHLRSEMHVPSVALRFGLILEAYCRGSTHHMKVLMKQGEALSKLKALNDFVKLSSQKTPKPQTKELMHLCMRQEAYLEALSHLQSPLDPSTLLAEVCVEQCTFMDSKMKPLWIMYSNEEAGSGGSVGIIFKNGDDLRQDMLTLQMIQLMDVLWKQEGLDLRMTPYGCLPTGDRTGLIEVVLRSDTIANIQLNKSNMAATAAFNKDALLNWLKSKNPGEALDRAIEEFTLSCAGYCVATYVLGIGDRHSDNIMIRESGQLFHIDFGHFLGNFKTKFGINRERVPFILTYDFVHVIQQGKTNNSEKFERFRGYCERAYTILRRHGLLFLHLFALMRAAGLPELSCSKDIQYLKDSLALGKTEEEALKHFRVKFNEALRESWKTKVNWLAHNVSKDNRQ
# PI3Kδ, sequence (P27986 whole entry partner, canonical isoform): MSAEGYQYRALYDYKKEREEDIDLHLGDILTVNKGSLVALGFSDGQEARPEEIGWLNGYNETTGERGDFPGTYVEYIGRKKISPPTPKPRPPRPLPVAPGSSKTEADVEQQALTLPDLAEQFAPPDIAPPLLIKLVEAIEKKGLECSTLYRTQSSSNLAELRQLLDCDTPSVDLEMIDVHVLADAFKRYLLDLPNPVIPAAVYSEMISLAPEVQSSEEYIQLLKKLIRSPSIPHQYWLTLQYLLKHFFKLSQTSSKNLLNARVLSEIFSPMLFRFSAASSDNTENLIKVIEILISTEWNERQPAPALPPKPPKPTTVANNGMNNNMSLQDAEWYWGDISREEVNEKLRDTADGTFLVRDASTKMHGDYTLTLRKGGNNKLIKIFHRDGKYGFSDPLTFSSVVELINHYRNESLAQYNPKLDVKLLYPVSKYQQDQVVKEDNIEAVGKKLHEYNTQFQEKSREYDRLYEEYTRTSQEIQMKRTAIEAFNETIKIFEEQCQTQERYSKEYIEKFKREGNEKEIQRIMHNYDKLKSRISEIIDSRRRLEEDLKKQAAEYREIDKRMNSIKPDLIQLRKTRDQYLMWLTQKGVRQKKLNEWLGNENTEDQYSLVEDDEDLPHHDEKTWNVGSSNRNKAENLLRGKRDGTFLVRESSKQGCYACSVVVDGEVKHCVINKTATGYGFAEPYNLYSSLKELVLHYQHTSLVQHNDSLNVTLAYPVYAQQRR
compound,measurement,value
"COc1c([C@@H](C)n2nc(C)c3c(N)ncnc32)cc(Cl)c(C#N)c1C1CN(C[C@@H](C)O)C1 [Example 363, 4-((R)-1-(4-amino-3-methyl-1H-pyrazolo[3,4-d]pyrimidin-1-yl)ethyl)-6-chloro-2-(1-((R)-2-hydroxypropyl)azetidin-3-yl)-3-methoxybenzonitrile]",IC50,50 to 200 nM
